From ChEMBL document CHEMBL1138817, “Synthesis and cytotoxic activity of 3-O-acyl/3-hydrazine /2-bromo/20,29-dibromo betulinic acid derivatives” (2004)
Values after ≈ are worked out from the molar mass of the structure shown.

Legend:
Type in all cases: functional
[1] = test system: Jurkat; assay: Cytotoxic activity against human JurkatE6.1 cell line was measured after 72 h using MTT assay; settings: Homo sapiens, Jurkat, 72 h; read-out: ED50 (the source's name)
[2] = test system: A549; assay: Cytotoxic activity against human A549 cell line was measured after 72 hr using MTT assay; settings: A549, 72 h, read-out: ED50 (the source's name)
[3] = test system: L132; assay: Cytotoxic activity against human L132 cell line was measured after 72 hr using MTT assay; settings: L132, 72 h, read-out: ED50 (the source's name)
[4] = test system: PA-1; assay: Cytotoxic activity against human PA-1 cell line was measured after 72 hr using MTT assay; settings: Homo sapiens, PA-1, 72 h; read-out: ED50 (the source's name)
[5] = test system: DU-145; assay: Cytotoxic activity against human DU145 cell line was measured after 72 hr using MTT assay; settings: Homo sapiens, DU-145, 72 h; read-out: ED50 (the source's name)
[6] = test system: MOLT-4; assay: Cytotoxic activity against human MOLT-4 cell line was measured after 72 hr using MTT assay; settings: Homo sapiens, MOLT-4, 72 h; read-out: ED50 (the source's name)
[7] = test system: CCRF-CEM; assay: Cytotoxic activity against human CEM.CM3 cell line was measured after 72 hr using MTT assay; settings: Homo sapiens, CCRF-CEM, 72 h; read-out: ED50 (the source's name)
[8] = test system: BRISTOL8; assay: Cytotoxic activity against human BRISTOL8 cell line was measured after 72 hr using MTT assay; settings: Homo sapiens, BRISTOL8, 72 h; read-out: ED50 (the source's name)
[9] = test system: U-937; assay: Cytotoxic activity against human U937 cell line was measured after 72 hr using MTT assay; settings: Homo sapiens, U-937, 72 h; read-out: ED50 (the source's name)

Structure (SMILES)	EC50 [1]	EC50 [2]	EC50 [3]	EC50 [4]	EC50 [5]	EC50 [6]	EC50 [7]	EC50 [8]	EC50 [9]
CC(C)[C@@H]1CC[C@]2(C(=O)O)CC[C@]3(C)C(CCC4[C@@]5(C)CC(Br)C(=O)C(C)(C)C5CC[C@]43C)C12 (stereo partly drawn)	0.7 µg/mL (≈ 1.31 µM)	> 10 µg/mL	> 10 µg/mL	0.5 µg/mL (≈ 0.934 µM)	3 µg/mL (≈ 5.6 µM)	0.4 µg/mL (≈ 0.747 µM)	0.3 µg/mL (≈ 0.56 µM)	2.9 µg/mL (≈ 5.41 µM)	1.3 µg/mL (≈ 2.43 µM)
COC(=O)COC(=O)[C@]12CC[C@@H](C(C)C)C1C1CCC3[C@@]4(C)CC(Br)C(=O)C(C)(C)C4CC[C@@]3(C)[C@]1(C)CC2 (stereo partly drawn)	2.8 µg/mL (≈ 4.61 µM)	> 10 µg/mL	> 10 µg/mL	3.2 µg/mL (≈ 5.27 µM)	6.8 µg/mL (≈ 11.2 µM)	1.7 µg/mL (≈ 2.8 µM)	2.1 µg/mL (≈ 3.46 µM)	3.4 µg/mL (≈ 5.6 µM)	1.1 µg/mL (≈ 1.81 µM)
CC(Br)(CBr)[C@@H]1CC[C@]2(C(=O)O)CC[C@]3(C)C(CCC4[C@@]5(C)CC(Br)[C@H](O)C(C)(C)C5CC[C@]43C)C12 (stereo partly drawn)	> 10 µg/mL	> 10 µg/mL	> 10 µg/mL	6 µg/mL (≈ 8.63 µM)	> 10 µg/mL	3.6 µg/mL (≈ 5.18 µM)	6.8 µg/mL (≈ 9.78 µM)	7 µg/mL (≈ 10.1 µM)	> 10 µg/mL
CC1(C)C(=O)C(Br)C[C@@]2(C)C1CC[C@]1(C)C2CCC2C3[C@H](C(C)(Br)CBr)CC[C@]3(C(=O)O)CC[C@]21C (stereo partly drawn)	2.1 µg/mL (≈ 3.03 µM)	> 10 µg/mL	> 10 µg/mL	5.1 µg/mL (≈ 7.36 µM)	3.6 µg/mL (≈ 5.19 µM)	5.9 µg/mL (≈ 8.51 µM)	2.8 µg/mL (≈ 4.04 µM)	3.8 µg/mL (≈ 5.48 µM)	2.1 µg/mL (≈ 3.03 µM)
C=C(C)[C@@H]1CC[C@]2(C(=O)O)CC[C@]3(C)C(CCC4[C@@]5(C)CC[C@H](OC(=O)CC)C(C)(C)C5CC[C@]43C)C12 (stereo partly drawn)	2.1 µg/mL (≈ 4.1 µM)	> 10 µg/mL	> 10 µg/mL	3.7 µg/mL (≈ 7.22 µM)	4.2 µg/mL (≈ 8.19 µM)	3.3 µg/mL (≈ 6.44 µM)	5.5 µg/mL (≈ 10.7 µM)	2.1 µg/mL (≈ 4.1 µM)	6.8 µg/mL (≈ 13.3 µM)
COC(=O)C(C)C(=O)O[C@H]1CC[C@@]2(C)C(CC[C@]3(C)C2CCC2C4[C@H](C(C)C)CC[C@]4(C(=O)O)CC[C@]23C)C1(C)C (stereo partly drawn)	3.8 µg/mL (≈ 6.63 µM)	2.1 µg/mL (≈ 3.67 µM)	7.7 µg/mL (≈ 13.4 µM)	1.3 µg/mL (≈ 2.27 µM)	1 µg/mL (≈ 1.75 µM)	2.8 µg/mL (≈ 4.89 µM)	3.1 µg/mL (≈ 5.41 µM)	2.1 µg/mL (≈ 3.67 µM)	4 µg/mL (≈ 6.98 µM)
C=C(C)[C@@H]1CC[C@]2(C(=O)O)CC[C@]3(C)C(CCC4[C@@]5(C)CC[C@H](OC(=O)C(C)C(=O)OC)C(C)(C)C5CC[C@]43C)C12 (stereo partly drawn)	0.9 µg/mL (≈ 1.58 µM)	> 10 µg/mL	> 10 µg/mL	3.6 µg/mL (≈ 6.31 µM)	1.6 µg/mL (≈ 2.8 µM)	1.2 µg/mL (≈ 2.1 µM)	1.6 µg/mL (≈ 2.8 µM)	1.7 µg/mL (≈ 2.98 µM)	1.1 µg/mL (≈ 1.93 µM)
